{
  "source": "patent US4119784A",
  "about": "“Anionic substituted sulfonamido biphenyls” (American Cyanamid Company, priority 1977, dated 1978)",
  "assay_type_in_all_cases": "biochemical",
  "key": {"[1]": {"system": "late components of human complement (C3-C9)", "test": "Test, Code 035 (C3-C9 inhibitor)", "set-up": "key: N = Negative", "conditions": "protection of EAC 142 from lysis by human C3-C9; two-fold serial dilution assay", "excerpt": "(§1) An active inhibitor protects C2 from C1 and C4; (ii) Test, Code 035 (C3-C9 inhibitor)--This test determines the ability of the late components of human complement (C3-C9) to lyse EAC 142 in the presence of appropriate dilutions of the test compound. An active inhibitor protects EAC 142 from lysis by human C3-C9; (iii) Test, Code 036 (C-Shunt inhibitor)--In this test human erythrocytes rendered fragile are lysed in autologous serum via the shunt pathway activated by cobra venom factor in the presence of appropriate dilutions of the test compound. Inhibition of the shunt pathway results in failure of lysis; (iv) Forssman Vasculitis Test--Here, the well known complement dependent lesion, Forssman vasculitis, is produced in guinea pigs by intradermal injection of rabbit anti-Forssman antiserum. […]"}, "activated human C1": {"system": "activated human C1", "test": "Test, Code 026 (C1 inhibitor)", "conditions": "activity in wells of a two-fold serial dilution assay; higher well number indicates higher activity", "excerpt": "as §1"}, "[2]": {"system": "shunt pathway activated by cobra venom factor", "test": "Test, Code 036 (C-Shunt inhibitor)", "conditions": "human erythrocytes in autologous serum; two-fold serial dilution assay; higher well number indicates higher activity", "excerpt": "as §1"}},
  "note": "Structures can show the parent of a compound that is named as a salt.",
  "data": [
    {"compound": "O=C(O)c1cc(NS(=O)(=O)c2ccc(-c3ccc(S(=O)(=O)Nc4cc(C(=O)O)cc(C(=O)O)c4)cc3S(=O)(=O)Nc3cc(C(=O)O)cc(C(=O)O)c3)c(S(=O)(=O)Nc3cc(C(=O)O)cc(C(=O)O)c3)c2)cc(C(=O)O)c1", "note": "[5,5',5\",5'\"-[2,2',4,4'-Biphenyltetrayltetrakis(sulfonylimino)[tetraisophthalic acid octasodium salt]", "values": [
      {"measurement": "C-Late 035 Wells", "setting": "[1]", "result": "N"},
      {"measurement": "Cl 026 Wells", "setting": "activated human C1", "result": "+7 Wells"},
      {"measurement": "Shunt Inhibition 036 Wells", "setting": "[2]", "result": "+3 Wells"}
    ]}
  ]
}
